Holding throughout (experiment): DTP human tumour cell line panel, 48 h
Assay [1] deals with MOLT-4 leukemia.
In assay [2] the test system is SNB-75 CNS.
For assay [3], the system named is HS 578T breast.
Assay [4] relates to DU-145 prostate.
Assay [5] has as its system OVCAR-5 ovarian.
For assay [6], the system named is NCI-H226 lung.
Assay [7] relates to MCF7 breast.
Assay [8] has as its system NCI-H460 lung.
Assay [9] deals with SK-MEL-2 melanoma.
Assay [10] has as its system EKVX NSCLC.

Where “and” joins values, the source holds several entries; their conditions need not be identical. Identical values can stand only once.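 Briefly, cells in 96-well plates were exposed to five compound concentrations for 48 h, and endpoints were estimated by linear interpolation. At the GI50, growth is halved. Definition used: TGI = concentration required for complete inhibition of growth.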

For `CN(C)CCCn1c2c(c3ccc(N4CCNCC4)cc3c1=O)C(=O)c1ccccc1-2`, the GI50 in assay [1] was 0.0979 µM; in assay [2], 0.947 µM; in [3], 1.44 µM; in assay [4], 0.329 µM; in assay [5], 2.12 µM; in assay [6] it was 0.564 µM. For the same compound, the GI50 is 0.296 µM in [7], 0.307 µM in assay [8], 1.71 µM in assay [9] and 1.18 µM in assay [10]. The TGI in assay [1] came out at 0.922 µM; in assay [2], 2.55 µM; in assay [3], 4.38 µM; in assay [4], 1.65 µM; in [5], 5.57 µM; in assay [6], 2.9 µM. For the same compound, the TGI worked out at 1.78 µM in assay [7], 1.56 µM in [8], 3.38 µM in [9] and 2.93 µM in assay [10].

Take `CC1SC(c2ccc(OCc3ccccc3)cc2)N(NC(=O)C(O)(c2ccccc2)c2ccccc2)C1=O` (stereo not drawn): the GI50 is 2.02 µM in [1]; 3.72 µM in assay [2]; 1.94 µM in assay [3]; 3.55 µM in [4]; 3.81 µM in assay [5]; 3.79 µM in assay [6]. Also, the GI50 was 4.37 µM in [7], 3.53 µM in assay [8], 4.36 µM in assay [9] and 5.49 µM in [10]. The TGI in [1] was 5.58 µM; in assay [2], 18.1 µM; in assay [3], 7.15 µM; in [4], 13.6 µM; in assay [5], 16.1 µM; in assay [6], 15.8 µM. Also, the TGI in [7] is 22.4 µM; in assay [8], 12.9 µM; in assay [9], 18.8 µM; in assay [10], 22.5 µM.

As to `NC1=Nc2cc(OCCCCN3Cc4ccccc4C3)c(OCC3CC3)cc2C12CCCC2`, the GI50 was 1.88 µM in assay [1]; 1.19 µM in [2]; 1.49 µM in assay [3]; 3.24 µM in [4]; 2.3 µM in assay [5]; 1.32 µM in assay [6]. Also, the GI50 in [7] was 1.37 µM; in [8], 1.67 µM; in [9], 1.84 µM; in assay [10], 2.77 µM. Also, the TGI in [1] stood at 5.04 µM; in assay [2], 2.48 µM; in assay [3] it was 4.18 µM; in assay [4], 11.4 µM; in assay [5] it was 6.4 µM; in assay [6], 3.48 µM. Besides, the TGI in assay [7] turned out to be 2.99 µM; in assay [8], 3.21 µM; in [9] it was 3.49 µM; in assay [10] it was 14.5 µM.

For `O=C(/C=C/c1ccccc1)c1ccccn1`, the TGI is 61.4 µM and 72.6 µM in assay [1]; 37.5 µM and 92.7 µM in assay [2]; 77.3 µM in assay [3]; 24.8 µM and 40.5 µM in assay [4]; 29 µM and > 100 µM in assay [5]; 37.5 µM and > 100 µM in [6]. The total growth inhibition concentration (TGI) was 37.1 µM in assay [7]; 32.7 µM and 49.1 µM in [8]; 43.8 µM in assay [9]; 45.5 µM and 41 µM in assay [10]. In addition, in assay [5], the GI50 was 11.5 µM and 24.2 µM.

In the case of `O=C1Nc2ccc(I)cc2/C1=C/c1cc(Br)c(O)c(Br)c1`, the GI50 in assay [1] was above 60.1 µM; in assay [2] it was > 25 µM and 22.2 µM; in [3] it was > 17.9 µM and 21.3 µM; in assay [4], > 23.8 µM and 25 µM; in assay [5], > 25 µM and 21.5 µM; in assay [6], > 25 µM and 27.8 µM. The GI50 in [7] was > 20.1 µM and 15.4 µM; in assay [8] it was > 17.4 µM and 17 µM; in assay [9], 19.6 µM and 14.7 µM; in assay [10], > 17.5 µM and 13.8 µM. Moreover, the TGI is above 100 µM in assay [1]; above 90.3 µM in [2]; above 80.4 µM in assay [3]; above 100 µM in [4]; > 25 µM and 51.7 µM in assay [5]; > 25 µM and 81.2 µM in assay [6]. In addition, the TGI is above 82.2 µM in assay [7]; > 25 µM and 44.1 µM in assay [8]; > 25 µM and 37.5 µM in assay [9]; above 84.1 µM in assay [10].

Turning to `Nc1c2ccccc2nc2ccccc12`, the GI50 was 1.68 µM and 2.21 µM in assay [1]; 2.46 µM and 3.11 µM in assay [2]; 2.45 µM and 8.09 µM in assay [3]; 2.02 µM and 2.57 µM in [4]; 2.71 µM and 3.36 µM in assay [5]; 1.24 µM and 2.81 µM in assay [6]. Moreover, the GI50 is 1.62 µM and 3.02 µM in assay [7]; 1.44 µM and 2.5 µM in assay [8]; 1.74 µM and 3.87 µM in assay [9]; 1.78 µM and 3.46 µM in assay [10]. The TGI was 11.1 µM in assay [1]; 6 µM and 10.4 µM in assay [2]; 5.51 µM and 6.86 µM in assay [4]; 13.4 µM and 8.16 µM in [5]; 3.21 µM and 8.24 µM in assay [6]; 9.14 µM and 10.8 µM in assay [7]. Further, the TGI in assay [8] is 5.17 µM and 6.88 µM; in assay [9], 3.41 µM and 11.4 µM.

As to `O=C(/C=C/c1c[nH]c2ccccc12)c1ccccc1O`, the TGI in assay [1] turned out to be 37 µM; in assay [2], 27.2 µM; in assay [3], 66.7 µM; in assay [4] it was 23.9 µM; in [5] it was 28.8 µM; in assay [6], 42.8 µM. Moreover, the TGI amounted to 18.7 µM in assay [7], 28.3 µM in [8], 18.6 µM in [9] and 33 µM in assay [10].

On to `COc1cccc(-c2cc(-c3ccc(Nc4nc(Nc5ccc(Cl)cc5)nc(Nc5ccc(Cl)cc5)n4)cc3)nc(N)c2C#N)c1`, for which the GI50 was 1.63 µM in [1]; 9.75 µM in assay [2]; 2.66 µM in assay [3]; 4.58 µM in assay [4]; 3.3 µM in assay [5]; 2.16 µM in assay [6]. Further, the GI50 was 3.74 µM in assay [8], 1.74 µM in assay [9] and 4.79 µM in [10]. Moreover, the TGI was 4.93 µM in assay [1]; 24.6 µM in [2]; 11.2 µM in assay [3]; 26.1 µM in assay [4]; 15.1 µM in [5]; 5.78 µM in [6]. In addition, the TGI in [7] was 5.84 µM; in [8], 24.4 µM; in assay [9], 3.65 µM; in assay [10], 16.3 µM.
